This note sets out measurements from PubChem BioAssay AID330 (DTP/NCI, 2004).

In this assay the test system is P388 leukemia ip, CD2F1 mice, survival T/C. In words: NCI In Vivo Anticancer Drug Screen. Data for tumor model P388 Leukemia (intraperitoneal) in CD2F1 (CDF1) mice. The settings on record: endpoint: median survival time, higher = longer survival. A digest of the protocol:
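Mice carrying the transplanted tumor received test compound or vehicle. Survival was recorded in each group, and the value is the treated-group measurement divided by that of the vehicle-treated control group.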

[1] abbreviates: dose: 6.25 mg/kg/injection, schedule: Q01DX005 (ip), vehicle: Klucel (hydroxypropylcellulose) (HPC).
The mark [2] stands for this setting: dose: 12.5 mg/kg/injection, schedule: Q01DX005 (ip), vehicle: Klucel (hydroxypropylcellulose) (HPC).
The mark [3] stands for this setting: dose: 60.0 mg/kg/injection, schedule: Q01DX005 (ip), vehicle: Klucel (hydroxypropylcellulose) (HPC).
The mark [4] stands for this setting: dose: 60.0 mg/kg/injection, schedule: Q01DX005 (ip), vehicle: saline with Tween-80.
Setting [5] is: dose: 120.0 mg/kg/injection, schedule: Q01DX005 (ip), vehicle: saline with Tween-80.
The mark [6] stands for this setting: dose: 240.0 mg/kg/injection, schedule: Q01DX005 (ip), vehicle: saline with Tween-80.
Setting [7] is: dose: 100.0 mg/kg/injection, schedule: Q04DX003 (ip), vehicle: saline.
Where [8] appears, read: dose: 200.0 mg/kg/injection, schedule: Q04DX003 (ip), vehicle: saline.
The mark [9] stands for this setting: dose: 50.0 mg/kg/injection, schedule: Q01DX005 (ip), vehicle: saline with Tween-80.
The mark [10] stands for this setting: dose: 100.0 mg/kg/injection, schedule: Q01DX005 (ip), vehicle: saline with Tween-80.
Setting [11] is: dose: 200.0 mg/kg/injection, schedule: Q01DX005 (ip), vehicle: saline with Tween-80.
The mark [12] stands for this setting: dose: 25.0 mg/kg/injection, schedule: Q01DX005 (ip), vehicle: Klucel (hydroxypropylcellulose) (HPC).

“And” between values parts separate entries of the source, which are not always exact repeats. Equal values may be shown once. Toxic doses and inconclusive results are not listed.

On to `CCCCCCCCCCCCOC(=O)c1ccc(OP(=O)(O)OCc2ccccc2)cc1`, for which the T/C by setting is: (dose: 12.5 mg/kg/injection, schedule: Q01DX009 (ip), vehicle: Klucel (hydroxypropylcellulose) (HPC)) 104 % of control; (dose: 25.0 mg/kg/injection, schedule: Q01DX009 (ip), vehicle: Klucel (hydroxypropylcellulose) (HPC)) 121 % of control; (dose: 50.0 mg/kg/injection, schedule: Q01DX009 (ip), vehicle: Klucel (hydroxypropylcellulose) (HPC)) 103 % of control and 115 % of control.

Consider `COc1nc(NC(C)C)nc(NC(C)C)n1`, for which the T/C is 87 % of control (dose: 50.0 mg/kg/injection, schedule: Q04DX003 (ip), vehicle: saline with Tween-80); 95 % of control (dose: 100.0 mg/kg/injection, schedule: Q04DX003 (ip), vehicle: saline with Tween-80); 104 % of control (dose: 200.0 mg/kg/injection, schedule: Q04DX003 (ip), vehicle: saline with Tween-80).

For the molecule `CCCCCCCCC(=O)N(C)OC`, the T/C is, setting by setting: (dose: 25.0 mg/kg/injection, schedule: Q01DX009 (ip), vehicle: saline with Tween-80) 110 % of control; (dose: 50.0 mg/kg/injection, schedule: Q01DX009 (ip), vehicle: saline with Tween-80) 110 % of control; (dose: 100.0 mg/kg/injection, schedule: Q01DX009 (ip), vehicle: saline with Tween-80) 105 % of control.

On to `COC(=O)c1c(C(=O)OC)c(Nc2ccccc2)c2ccccc2c1O`, for which the T/C is 115 % of control (dose: 3.12 mg/kg/injection, schedule: Q01DX005 (ip), vehicle: Klucel (hydroxypropylcellulose) (HPC)); 107 % of control under setting [1]; 99 % of control under setting [2].

With `COc1ccc(C2=NN(C(C)=O)C(c3cc(OC)c(OC)cc3N)S2)cc1OC` (centres undefined) (tested in a mixture with another compound), the T/C runs as follows: (dose: 7.5 mg/kg/injection, schedule: Q01DX005 (ip), vehicle: saline with Tween-80) 97 % of control; (dose: 15.0 mg/kg/injection, schedule: Q01DX005 (ip), vehicle: saline with Tween-80) 92 % of control; (dose: 30.0 mg/kg/injection, schedule: Q01DX005 (ip), vehicle: saline with Tween-80) 90 % of control.

As to `CC1CC(=O)c2c(CO)nn(CCCO)c2C1` (centres undefined), the T/C is, setting by setting: (dose: 15.0 mg/kg/injection, schedule: Q01DX005 (ip), vehicle: Klucel (hydroxypropylcellulose) (HPC)) 101 % of control; (dose: 30.0 mg/kg/injection, schedule: Q01DX005 (ip), vehicle: Klucel (hydroxypropylcellulose) (HPC)) 102 % of control; under setting [3], 101 % of control; (dose: 60.0 mg/kg/injection, schedule: Q01DX005 (ip), vehicle: saline) 101 % of control.

`C=CCc1ccc(OC)c(O)c1C(=O)OCC`: the T/C (dose: 50.0 mg/kg/injection, schedule: Q01DX009 (ip), vehicle: saline) is 103 % of control; the T/C (dose: 100.0 mg/kg/injection, schedule: Q01DX009 (ip), vehicle: saline) is 103 % of control; the T/C (dose: 200.0 mg/kg/injection, schedule: Q01DX009 (ip), vehicle: saline) is 95 % of control.

As to `COc1cc2c(CCNC(C)=O)csc2cc1Cl`, the T/C runs as follows: under setting [4], 97 % of control; under setting [5], 99 % of control; under setting [6], 105 % of control.

As for `OC(c1cccnc1)C(CCc1ccccn1)c1ccccn1` (centres undefined), the T/C was 102 % of control under setting [7]; 101 % of control under setting [8]; 91 % of control (dose: 400.0 mg/kg/injection, schedule: Q04DX003 (ip), vehicle: saline).

On to `C[C@]12CC[C@@H]3c4ccc(OCCCO)c([N+](=O)[O-])c4CC[C@H]3[C@@H]1CCC2=O`, for which the T/C is 100 % of control (dose: 25.0 mg/kg/injection, schedule: Q01DX005 (ip), vehicle: saline with Tween-80); 106 % of control under setting [9]; 91 % of control under setting [10]; 88 % of control under setting [11].

As for `O=C1C2=C(Nc3cc([N+](=O)[O-])ccc3N2)OC1c1ccccc1` (centres undefined), the T/C is 91 % of control under setting [3]; 91 % of control (dose: 120.0 mg/kg/injection, schedule: Q01DX005 (ip), vehicle: Klucel (hydroxypropylcellulose) (HPC)); 99 % of control (dose: 240.0 mg/kg/injection, schedule: Q01DX005 (ip), vehicle: Klucel (hydroxypropylcellulose) (HPC)).

As to `[Cl][Pt+2][Cl].[NH-]CC(=O)O.[NH-]CC(=O)O`, the T/C is 100 % of control and 121 % of control (dose: 3.13 mg/kg/injection, schedule: Q01DX009 (ip), vehicle: water); 113 % of control (dose: 6.25 mg/kg/injection, schedule: Q01DX009 (ip), vehicle: water); 123 % of control and 124 % of control (dose: 12.5 mg/kg/injection, schedule: Q01DX009 (ip), vehicle: water); 117 % of control (dose: 25.0 mg/kg/injection, schedule: Q01DX009 (ip), vehicle: water); 118 % of control and 121 % of control (dose: 50.0 mg/kg/injection, schedule: Q01DX009 (ip), vehicle: water).

As for `CCOc1c(N=Nc2ccc(C)cc2)c(C)nn1C(=S)SC`, the T/C by setting is: (dose: 60.0 mg/kg/injection, schedule: Q01DX005 (ip), vehicle: Klucel + Tween-80) 100 % of control; (dose: 120.0 mg/kg/injection, schedule: Q01DX005 (ip), vehicle: Klucel + Tween-80) 94 % of control; (dose: 240.0 mg/kg/injection, schedule: Q01DX005 (ip), vehicle: Klucel + Tween-80) 100 % of control.

For the molecule `Nc1ccc(-c2ccc(C(=O)O)cc2)cc1`, the T/C by setting is: under setting [4], 104 % of control; under setting [5], 106 % of control; under setting [6], 109 % of control.

On to `[BH]n1cccn1.[CH3][Sn]([CH3])[N]=C=S`, for which the T/C by setting is: under setting [7], 117 % of control; under setting [8], 117 % of control.

With `CCOC(=O)CC1=CSC(=C(C(=O)OCC)C(=O)OCC)N1c1ccccc1`, the T/C reads like this: under setting [9], 96 % of control; under setting [10], 91 % of control; under setting [11], 86 % of control.

For the molecule `Nc1nc(Cl)c2nnn(C3CC(O)C(CO)C3)c2n1` (centres undefined), the T/C was 116 % of control under setting [1]; 112 % of control under setting [2]; 119 % of control under setting [12]; 110 % of control (dose: 50.0 mg/kg/injection, schedule: Q01DX005 (ip), vehicle: Klucel (hydroxypropylcellulose) (HPC)).

For `COc1nc(C(Cl)(Cl)Cl)c(Cl)c(OC)c1Cl`, the T/C is, setting by setting: (dose: 17.8 mg/kg/injection, schedule: Q01DX005 (iv), vehicle: other) 108 % of control; under setting [12], 114 % of control and 115 % of control; (dose: 26.7 mg/kg/injection, schedule: Q01DX005 (ip), vehicle: other) 111 % of control and 121 % of control; (dose: 26.7 mg/kg/injection, schedule: Q01DX005 (iv), vehicle: other) 109 % of control; (dose: 40.0 mg/kg/injection, schedule: Q01DX005 (ip), vehicle: Klucel (hydroxypropylcellulose) (HPC)) 100 % of control and 102 % of control; under setting [3], 105 % of control and 107 % of control. In addition, the T/C (dose: 60.0 mg/kg/injection, schedule: Q01DX005 (iv), vehicle: other) is 107 % of control; the T/C (dose: 90.0 mg/kg/injection, schedule: Q01DX005 (ip), vehicle: other) was 171 % of control; the T/C (dose: 134.0 mg/kg/injection, schedule: Q01DX005 (ip), vehicle: Klucel (hydroxypropylcellulose) (HPC)) is 150 % of control; the T/C (dose: 135.0 mg/kg/injection, schedule: Q01DX005 (ip), vehicle: Klucel (hydroxypropylcellulose) (HPC)) is 106 % of control; the T/C (dose: 135.0 mg/kg/injection, schedule: Q01DX005 (ip), vehicle: other) is 196 % of control and 207 % of control; the T/C (dose: 202.3 mg/kg/injection, schedule: Q01DX005 (ip), vehicle: Klucel (hydroxypropylcellulose) (HPC)) is 105 % of control. The T/C (dose: 303.3 mg/kg/injection, schedule: Q01DX005 (ip), vehicle: Klucel (hydroxypropylcellulose) (HPC)) is 168 % of control.

On to `COc1ccc(C(=O)C2=C(C)Nc3ccc(Br)cc3S2)cc1`, for which the T/C was 101 % of control under setting [4], 110 % of control under setting [5] and 105 % of control under setting [6].

For the molecule `Cc1ccc2nc3c4ccccc4c4ccccc4c3nc2c1C`, the T/C was 94 % of control under setting [9], 86 % of control under setting [10] and 89 % of control under setting [11].
